From PubChem BioAssay (NCI)
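At the GI50, growth is halved. TGI: total growth inhibition.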

How the values were obtained:
Test in all cases: NCI-60 cell line screen, 384-well format
SK-OV-3 ovarian = test system: SK-OV-3 ovarian
NCI-H226 lung = test system: NCI-H226 lung
MALME-3M melanoma = test system: MALME-3M melanoma
HCT-15 colon = test system: HCT-15 colon
786-0 renal = test system: 786-0 renal
EKVX NSCLC = test system: EKVX NSCLC
IGROV1 ovarian = test system: IGROV1 ovarian
CAKI-1 renal = test system: CAKI-1 renal
NCI/ADR-RES ovarian = test system: NCI/ADR-RES ovarian
HCC-2998 colon = test system: HCC-2998 colon
SF-539 CNS = test system: SF-539 CNS
A498 renal = test system: A498 renal
UO-31 renal = test system: UO-31 renal
DU-145 prostate = test system: DU-145 prostate
SNB-19 CNS = test system: SNB-19 CNS
T-47D breast = test system: T-47D breast
UACC-257 melanoma = test system: UACC-257 melanoma
KM12 colon = test system: KM12 colon
MCF7 breast = test system: MCF7 breast
A549 NSCLC = test system: A549 NSCLC
LOX IMVI melanoma = test system: LOX IMVI melanoma
ACHN renal = test system: ACHN renal
SN12C renal = test system: SN12C renal
OVCAR-4 ovarian = test system: OVCAR-4 ovarian
HOP-92 NSCLC = test system: HOP-92 NSCLC
SF-268 CNS = test system: SF-268 CNS
M14 melanoma = test system: M14 melanoma
OVCAR-5 ovarian = test system: OVCAR-5 ovarian
NCI-H322M lung = test system: NCI-H322M lung
TK-10 renal = test system: TK-10 renal

For `C/C(=C\c1csc(C)n1)[C@@H]1C[C@@H]2O[C@]2(C)CCC[C@H](C)[C@H](O)[C@@H](C)C(=O)C(C)(C)[C@@H](O)CC(=O)N1`, the TGI (SK-OV-3 ovarian) was greater than 100000 nM, the TGI (NCI-H226 lung) was greater than 100000 nM and the TGI (MALME-3M melanoma) was greater than 100000 nM. The GI50 (HCT-15 colon) was 14.1 nM, the TGI (HCT-15 colon) was 384 nM and the TGI (786-0 renal) was 87.1 nM. It also gave a GI50 (EKVX NSCLC) of 24 nM, a TGI (EKVX NSCLC) greater than 100000 nM and a GI50 (IGROV1 ovarian) of 27.6 nM. For the same compound, the TGI (IGROV1 ovarian) was greater than 100000 nM, the TGI (CAKI-1 renal) was greater than 100000 nM and the GI50 (NCI/ADR-RES ovarian) was 437 nM. For the same compound, the TGI (NCI/ADR-RES ovarian) was 1910 nM, the TGI (HCC-2998 colon) was 12.3 nM and the TGI (SF-539 CNS) was 13.5 nM. It also gave a TGI (A498 renal) greater than 100000 nM, a GI50 (UO-31 renal) of 60.5 nM and a TGI (UO-31 renal) greater than 100000 nM. It also gave a TGI (DU-145 prostate) of 10.7 nM, a GI50 (SNB-19 CNS) of 15.7 nM and a TGI (SNB-19 CNS) greater than 100000 nM. It also gave a TGI (T-47D breast) greater than 100000 nM, a TGI (UACC-257 melanoma) greater than 100000 nM and a TGI (KM12 colon) greater than 100000 nM. For the same compound, the TGI (MCF7 breast) was greater than 100000 nM, the TGI (A549 NSCLC) was greater than 100000 nM and the TGI (LOX IMVI melanoma) was greater than 100000 nM. It also gave a GI50 (ACHN renal) of 40.3 nM, a TGI (ACHN renal) greater than 100000 nM and a TGI (SN12C renal) greater than 100000 nM. For the same compound, the TGI (OVCAR-4 ovarian) was greater than 100000 nM, the TGI (HOP-92 NSCLC) was greater than 100000 nM and the TGI (SF-268 CNS) was greater than 100000 nM. It also gave a TGI (M14 melanoma) of 10.3 nM, a TGI (OVCAR-5 ovarian) greater than 100000 nM and a GI50 (NCI-H322M lung) of 10.7 nM. For the same compound, the TGI (NCI-H322M lung) was greater than 100000 nM, the GI50 (TK-10 renal) was 55.2 nM and the TGI (TK-10 renal) was greater than 100000 nM.
